Measured values as given in patent US20240108740A1, “THERAPEUTIC COMPOSITIONS INCLUDING SPN10 AND USES THEREOF” (Stealth BioTherapeutics Inc., priority 2022, published 2024).
Residues, ends and D or L forms follow the SMILES beside them.

Legend:
[1] = tested on: Sprague-Dawley rats; experiment: Example 43: cisplatin-induced acute renal injury; format: in vivo, rat; settings: cisplatin 7 mg/kg i.p.
Description: Experimental Protocol: Sprague-Dawley rats (350-400 g) will be given a single dose of cisplatin (7 mg/kg) intraperitoneally (i.p.) on Day 1. Subjects will receive peptide conjugates (3 mg/kg) (n=8), aromatic-cationic peptides (an equivalent molar dose of aromatic-cationic peptide based on the concentration of the aromatic-cationic peptide administered in the peptide conjugate treatment group) (n=8), SPN10(s) (an equivalent molar dose of SPN10 based on the concentration of SPN10 administered in the peptide conjugate treatment group) (n=8), SPN10(s) in combination with aromatic-cationic peptides (e.g., an equivalent molar dose of SPN10 based on the concentration of SPN10 administered in the peptide conjugate treatment group and an equivalent molar dose of aromatic-cationic peptide based on the concentration of aromatic-cationic peptide administered in the peptide conjugate treatment group) (n=8) or saline vehicle (n=8) subcutaneously just prior to cisplatin administration, and once daily for 3 additional days. Subjects will be placed in metabolic cages for the final 24 hours of the trial for urine collection. At the end of the trial, blood samples will be withdrawn from tail veins and the kidneys harvested.
Renal function: Renal function will be assessed by measuring blood urea nitrogen (BUN), serum creatinine, urine creatinine, and urine protein. GFR will be estimated from creatinine clearance, which will be determined from serum and urinary creatinine, and urinary volume.
Renal Histology: Kidneys will be fixed in 10% neutral-buffered formalin and embedded in paraffin wax for sectioning. Three-micron sections will be stained with periodic acid-Schiff (PAS) and analyzed by light microscopy.

[2] = tested on: wild-type (WT) mice, middle cerebral artery occlusion; experiment: Cerebral ischemia, no-reflow zone in the brain; format: in vivo, mouse; settings: i.p. at 0, 6, 24 and 48 hours after ischemia
Description: Cerebral ischemia initiates a cascade of cellular and molecular events that lead to brain damage. One such event is an anatomic zone of no-reflow. Cerebral ischemia will be induced by occlusion of the right middle cerebral artery for 30 minutes. Wild-type (WT) mice will be given either saline vehicle (Veh), peptide conjugate, aromatic-cationic peptide, SPN10, SPN10 and aromatic-cationic peptide (2-5 mg/kg for the peptide conjugate and equivalent molar doses of aromatic-cationic peptide and/or SPN10 based on concentration of the aromatic-cationic peptide or SPN10 administered in the peptide conjugate group) i.p. at 0, 6, 24 and 48 hours after ischemia. Mice will be sacrificed 3 days after ischemia, and the brains sliced transversely into 6-8 sections. Sections will be photographed under ultraviolet light to identify the region of no-reflow. The areas of no-reflow in each slice will be digitized using Image J (supplier Rasband WS, Image J, National Institutes of Health, http://rsb.info.nih.gov/ij/). The areas in each slice will be multiplied by the weight of the slice and the results will be summed in order to obtain the mass of the no-reflow areas.

[3] = tested on: Isolated mouse pancreatic islet cells; experiment: Example 30: oxidative damage in pancreatic islet cells; format: cell-based; settings: 25 μM t-BHP
Description: Isolated mouse pancreatic islet cells will be treated with 25 μM t-BHP alone or in the presence of peptide conjugates, aromatic-cationic peptides, or SPN10(s) with or without aromatic-cationic peptides. Mitochondrial membrane potential will be measured by TMRM (red) and reactive oxygen species will be measured by DCF (green) using confocal microscopy.

[4] = tested on: isolated mouse liver mitochondria; experiment: Example 19: H2O2 production by isolated mitochondria (luminol chemiluminescence); settings: AUC over 20 min
Description: Livers will be harvested from mice, homogenized in ice-cold buffer, and centrifuged at 13800×g for 10 min. The pellet will be washed once, re-suspended in 0.3 mL of wash buffer, and placed on ice until use. H2O2 will be measured using luminol chemiluminescence as described previously (Li, et al., Biochim. Biophys. Acta 1428:1-12 (1999). 0.1 mg mitochondrial protein will be added to 0.5 mL potassium phosphate buffer (100 mM, pH 8.0) in the presence of vehicle, peptide conjugates, SPN10(s) alone or in combination with aromatic-cationic peptides, or aromatic-cationic peptides. […] luminol and 0.7 IU horseradish peroxidase will be added, and chemiluminescence will be monitored with a Chronolog Model 560 aggregometer (Havertown, PA) for 20 minutes at 37° C. The amount of H2O2 produced will be quantified as the area under the curve (AUC) over 20 min, and all data will be normalized to AUC produced by mitochondria alone.

N=C(N)NCCC[C@H](NC(=O)[C@@H](N)Cc1c[nH]c2ccccc12)C(=O)N[C@@H](Cc1c[nH]c2ccccc12)C(=O)N[C@@H](CCCCN)C(N)=O [SPN10, H-L-Trp-L-Arg-L-Trp-L-Lys-NH2] (H-WRWK-NH2)
increase in BUN after cisplatin [1]: attenuate or prevent this effect
increase in serum creatinine after cisplatin [1]: attenuate or prevent this effect
reduction in body weight after cisplatin [1]: attenuate or prevent this effect
anatomic zone of no-reflow in the brain [2]: prevent or reduce
infarct volume [2]: significant reduction
oxidative damage in isolated pancreatic islet cells [3]: protect against oxidative damage
amount of H2O2 production [4]: significantly reduced
